Laboratory results published in patent US9006250B2, “4-amino-6-(heterocyclic)picolinates and 6-amino-2-(heterocyclic)pyrimidine-4-carboxylates and their use as herbicides” (Dow AgroSciences, LLC, priority 2013, dated 2015).

Experiments:
Assay in all cases: Postemergence herbicidal activity in direct seeded rice
Format in all cases: in vivo
[1] = test system: CYPES: yellow nutsedge, Cyperus esculentus
Excerpt: (§1) Seeds or nutlets of the desired test plant species were planted in a soil matrix prepared by mixing a loam soil (43 percent silt, 19 percent clay, and 38 percent sand, with a pH of about 8.1 and an organic matter content of about 1.5 percent) and river sand in an 80 to 20 ratio. The soil matrix was contained in plastic pots with a surface area of 139.7 cm^2. When required to ensure good germination and healthy plants, a fungicide treatment and/or other chemical or physical treatment was applied. The plants were grown for 10-17 d in a greenhouse with an approximate 14-h photoperiod which was maintained at about 29° C. during the day and 26° C. during the night. Nutrients and water were added on a regular basis and supplemental lighting was provided with overhead metal halide 1000-Watt lamps as necessary. The plants were employed for testing when they reached the second or third true leaf stage. A weighed amount, determined by the highest rate to be tested, of each test compound was placed in 25 mL glass vials and dissolved in a volume of 97:3 v/v acetone-DMSO to obtain 12× stock solutions. […] The concentrated stock solutions were added to the spray solutions so that the final acetone and DMSO concentrations were 16.2% and 0.5%, respectively. Spray solutions were diluted to the appropriate final concentrations with the addition of 10 mL of an aqueous mixture of 1.5% (v/v) Agri-dex crop oil concentrate. The final spray solutions contained 1.25% (v/v) Agri-dex crop oil concentrate. Compound requirements are based upon a 12 mL application volume at a rate of 187 L/ha. Formulated compounds were applied to the plant material with an overhead Mandel track sprayer equipped with […] nozzles calibrated to deliver 187 L/ha over an application area of 0.503 square meters (m^2) at a spray height of 18 inches ([…]) above average plant canopy height. Control plants were sprayed in the same manner with the solvent blank. The treated plants and control plants were placed in a greenhouse as described above and watered by sub-irrigation to prevent wash-off of the test compounds. After 20-22 days, the condition of the test plants, compared with that of the untreated plants, was determined visually and scored on a scale of 0 to 100 percent where 0 corresponds to no injury and 100 corresponds to complete kill. By applying the well-accepted probit analysis as described by J. Berkson in […], 48, 565 (1953) and by D. Finney in “Probit Analysis” Cambridge University Press (1952), the above data can be used to calculate GR20, GR50, GR80 and GR90 values, which are defined as growth reduction factors that correspond to the effective dose of herbicide required to kill or control 20 percent, 50 percent, 80 percent or 90 percent, respectively, of a target plant.

[2] = test system: DIGSA: large crabgrass, Digitaria sanguinalis
Excerpt: as §1

ORYSK: Oryza sativa = test system: ORYSK: Oryza sativa
Excerpt: as §1

[3] = test system: ECHCG: barnyardgrass, Echinochloa crus-galli
Excerpt: as §1

[4] = test system: ECHCO: junglerice, Echinochloa colonum
Excerpt: as §1

[5] = dose for 50 percent control, probit analysis
[6] = dose for 80 percent control, probit analysis
[7] = dose for 90 percent control, probit analysis

COC(=O)c1nc(-c2ccc3nsnc3c2)c(F)c(N)c1Cl [Compound 11]
Visual Growth Reduction (%) 21 Days After Application CYPES ([1]; 17.5 g ai/ha): D (60-74) | Visual Growth Reduction (%) 21 Days After Application CYPES ([1]; 35 g ai/ha): G (0-29) | Visual Growth Reduction (%) 21 Days After Application CYPES ([1]; 70 g ai/ha): E (45-59) | GR50 CYPES [1, 5]: >70 g ai/ha | GR80 CYPES [1, 6]: >70 g ai/ha | GR90 CYPES [1, 7]: >70 g ai/ha | Visual Growth Reduction (%) 21 Days After Application DIGSA ([2]; 17.5 g ai/ha): E (45-59) | Visual Growth Reduction (%) 21 Days After Application DIGSA ([2]; 35 g ai/ha): E (45-59) | Visual Growth Reduction (%) 21 Days After Application DIGSA ([2]; 70 g ai/ha): D (60-74) | GR50 DIGSA [2, 5]: 11 g ai/ha | GR80 DIGSA [2, 6]: 628 g ai/ha | GR90 DIGSA [2, 7]: 5310 g ai/ha | Visual Growth Reduction (%) 21 Days After Application ORYSK (ORYSK: Oryza sativa; 17.5 g ai/ha): G (0-29) | Visual Growth Reduction (%) 21 Days After Application ORYSK (ORYSK: Oryza sativa; 35 g ai/ha): G (0-29) | Visual Growth Reduction (%) 21 Days After Application ORYSK (ORYSK: Oryza sativa; 70 g ai/ha): G (0-29) | GR20 ORYSK (ORYSK: Oryza sativa; dose for 20 percent growth reduction, probit analysis): >70 g ai/ha | Visual Growth Reduction (%) 21 Days After Application ECHCG ([3]; 17.5 g ai/ha): E (45-59) | Visual Growth Reduction (%) 21 Days After Application ECHCG ([3]; 35 g ai/ha): C (75-84) | Visual Growth Reduction (%) 21 Days After Application ECHCG ([3]; 70 g ai/ha): B (85-94) | GR50 ECHCG [3, 5]: 6 g ai/ha | GR80 ECHCG [3, 6]: 37 g ai/ha | GR90 ECHCG [3, 7]: 98 g ai/ha | Visual Growth Reduction (%) 21 Days After Application ECHCO ([4]; 17.5 g ai/ha): E (45-59) | Visual Growth Reduction (%) 21 Days After Application ECHCO ([4]; 35 g ai/ha): D (60-74) | Visual Growth Reduction (%) 21 Days After Application ECHCO ([4]; 70 g ai/ha): C (75-84) | GR50 ECHCO [4, 5]: 15 g ai/ha | GR80 ECHCO [4, 6]: 107 g ai/ha | GR90 ECHCO [4, 7]: 300 g ai/ha
